Data published in ChEMBL document CHEMBL5500392, “Functional and Structural Characterization of Clinical-Stage Janus Kinase 2 Inhibitors Identifies Determinants for Drug Selectivity” (J Med Chem, 2024).
The source made the active and inactive calls. No cut-off for these calls is given here.

Assays:
[1] = molecular target: T1, Tyrosine-protein kinase JAK2 (Homo sapiens, UniProt O60674); conditions: dose 30-200 µM
[2] = molecular target: T1, Tyrosine-protein kinase JAK2; conditions: dose 30-200 µM; remark: listed apart in the source
[3] = molecular target: T2, Non-receptor tyrosine-protein kinase TYK2 (Homo sapiens, UniProt P29597); experiment: Binding affinity to recombinant human TYK2 JH2 (564 to 876-His residues) pseudokinase domain by fluorescence polarization assay
T2 sequence (P29597 whole entry, the tested form may be a part): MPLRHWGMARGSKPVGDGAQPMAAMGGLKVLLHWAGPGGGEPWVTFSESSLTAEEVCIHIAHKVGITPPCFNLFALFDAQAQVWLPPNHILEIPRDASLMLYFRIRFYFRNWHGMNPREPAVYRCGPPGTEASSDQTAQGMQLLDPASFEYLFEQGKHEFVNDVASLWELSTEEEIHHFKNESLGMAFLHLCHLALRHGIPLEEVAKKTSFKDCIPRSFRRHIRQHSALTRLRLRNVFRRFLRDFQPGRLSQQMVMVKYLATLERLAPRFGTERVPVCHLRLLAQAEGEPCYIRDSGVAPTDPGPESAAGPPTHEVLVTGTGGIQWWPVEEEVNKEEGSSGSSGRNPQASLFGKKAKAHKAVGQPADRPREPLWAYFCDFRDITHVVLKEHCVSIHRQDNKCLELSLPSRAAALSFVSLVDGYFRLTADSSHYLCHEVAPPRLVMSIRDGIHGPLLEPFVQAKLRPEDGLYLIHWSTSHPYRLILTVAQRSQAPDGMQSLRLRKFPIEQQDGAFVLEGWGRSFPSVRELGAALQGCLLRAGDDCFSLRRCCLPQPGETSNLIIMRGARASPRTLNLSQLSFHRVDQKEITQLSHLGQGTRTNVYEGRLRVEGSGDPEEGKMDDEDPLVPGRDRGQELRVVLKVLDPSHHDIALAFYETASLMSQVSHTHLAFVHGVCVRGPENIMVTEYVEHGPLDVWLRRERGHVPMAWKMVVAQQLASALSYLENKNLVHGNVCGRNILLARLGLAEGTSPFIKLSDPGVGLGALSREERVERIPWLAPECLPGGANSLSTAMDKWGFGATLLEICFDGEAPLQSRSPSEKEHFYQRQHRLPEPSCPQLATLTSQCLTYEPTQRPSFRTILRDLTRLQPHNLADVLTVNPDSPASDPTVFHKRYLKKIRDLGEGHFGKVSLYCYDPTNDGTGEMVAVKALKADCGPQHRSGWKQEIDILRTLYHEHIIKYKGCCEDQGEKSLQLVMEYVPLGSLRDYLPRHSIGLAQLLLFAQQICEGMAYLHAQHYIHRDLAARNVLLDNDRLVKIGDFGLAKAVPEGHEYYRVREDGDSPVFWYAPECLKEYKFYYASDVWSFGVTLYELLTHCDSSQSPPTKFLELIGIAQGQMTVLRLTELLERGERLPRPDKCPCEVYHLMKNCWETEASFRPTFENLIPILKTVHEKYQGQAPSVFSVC

[4] = molecular target: T1, Tyrosine-protein kinase JAK2; conditions: dose 30-200 µM; remark: listed apart in the source
BaF3 [5] = experiment: Cytotoxicity against IL-3 dependent humanized mouse BaF3 cells expressing wild type human JAK2 assessed as inhibition of cell growth incubated for 48 hrs by alamarBlue assay; assay type: functional, cell-based
BaF3 [6] = experiment: Cytotoxicity against IL-3 dependent humanized mouse BaF3 cells expressing human JAK2 V617F mutant assessed as inhibition of cell growth incubated for 48 hrs by alamarBlue assay; assay type: functional, cell-based
[7] = molecular target: T3, Tyrosine-protein kinase JAK1 (Homo sapiens, UniProt P23458); experiment: Binding affinity to recombinant human JAK1 JH2 (553 to 856-His residues) pseudokinase domain by fluorescence polarization assay
T3 sequence (P23458 whole entry, the tested form may be a part): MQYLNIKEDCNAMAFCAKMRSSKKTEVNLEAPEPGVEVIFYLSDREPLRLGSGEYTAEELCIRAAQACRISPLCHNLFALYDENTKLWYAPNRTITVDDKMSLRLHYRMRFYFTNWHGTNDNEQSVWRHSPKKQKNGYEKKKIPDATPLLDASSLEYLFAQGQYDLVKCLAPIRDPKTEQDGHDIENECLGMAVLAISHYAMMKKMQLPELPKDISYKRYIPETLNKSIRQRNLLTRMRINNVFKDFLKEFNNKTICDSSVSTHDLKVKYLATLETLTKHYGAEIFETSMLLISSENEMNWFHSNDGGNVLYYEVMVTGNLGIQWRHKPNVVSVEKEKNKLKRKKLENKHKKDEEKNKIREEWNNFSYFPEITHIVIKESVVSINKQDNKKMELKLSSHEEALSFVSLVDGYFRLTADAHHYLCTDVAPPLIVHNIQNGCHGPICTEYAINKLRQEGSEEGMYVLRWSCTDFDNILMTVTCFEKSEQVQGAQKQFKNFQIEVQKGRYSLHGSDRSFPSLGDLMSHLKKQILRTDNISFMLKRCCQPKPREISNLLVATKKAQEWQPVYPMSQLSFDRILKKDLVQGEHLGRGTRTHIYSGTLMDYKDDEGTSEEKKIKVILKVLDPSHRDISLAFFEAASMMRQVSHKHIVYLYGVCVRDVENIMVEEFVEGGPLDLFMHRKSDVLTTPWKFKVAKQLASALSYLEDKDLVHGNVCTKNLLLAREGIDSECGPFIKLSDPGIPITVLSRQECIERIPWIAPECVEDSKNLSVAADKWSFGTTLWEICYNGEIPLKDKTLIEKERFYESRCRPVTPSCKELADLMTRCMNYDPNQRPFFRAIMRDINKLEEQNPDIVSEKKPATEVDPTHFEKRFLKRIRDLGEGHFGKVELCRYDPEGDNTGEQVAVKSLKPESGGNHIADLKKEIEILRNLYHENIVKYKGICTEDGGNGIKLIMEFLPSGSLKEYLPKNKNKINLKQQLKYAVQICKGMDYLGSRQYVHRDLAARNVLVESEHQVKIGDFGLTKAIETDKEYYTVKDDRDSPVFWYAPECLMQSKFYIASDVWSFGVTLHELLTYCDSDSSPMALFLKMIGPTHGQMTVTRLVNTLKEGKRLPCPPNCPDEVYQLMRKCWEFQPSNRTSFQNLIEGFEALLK

[8] = molecular target: T3, Tyrosine-protein kinase JAK1; experiment: Binding affinity to recombinant human JAK1 kinase domain by fluorescence polarization assay
[9] = molecular target: T3, Tyrosine-protein kinase JAK1; experiment: Inhibition of recombinant human JAK1 assessed as inhibition of substrate phosphorylation measured every 5 mins for 30 mins by LANCE Ultra kinase assay
[10] = molecular target: T1, Tyrosine-protein kinase JAK2; experiment: Binding affinity to recombinant human JAK2 kinase domain by fluorescence polarization assay
[11] = molecular target: T1, Tyrosine-protein kinase JAK2; experiment: Inhibition of JAK2-mediated erythropoietin-induced STAT5 phosphorylation in human TF-1 cells pretreated for 60 mins followed by erythropoietin addition and measured after 15 mins by pacific orange/pacific blue NHS esters based Beckmann coulter flow cytometer; assay type: cell-based
[12] = molecular target: T2, Non-receptor tyrosine-protein kinase TYK2; experiment: Binding affinity to recombinant human TYK2 kinase domain by fluorescence polarization assay
[13] = molecular target: T2, Non-receptor tyrosine-protein kinase TYK2; experiment: Inhibition of recombinant human TYK2 assessed as inhibition of substrate phosphorylation measured every 5 mins for 30 mins by LANCE Ultra kinase assay
[14] = molecular target: T1, Tyrosine-protein kinase JAK2; experiment: Binding affinity to recombinant human JAK2 kinase domain (840 to 1132 residues) assessed as dissociation constant by ITC analysis
[15] = molecular target: T1, Tyrosine-protein kinase JAK2; experiment: Inhibition of recombinant human JAK2 assessed as inhibition of substrate phosphorylation measured every 5 mins for 30 mins by LANCE Ultra kinase assay
[16] = molecular target: T1, Tyrosine-protein kinase JAK2; experiment: Binding affinity to recombinant human JAK2 kinase domain (840 to 1132 residues) assessed as change in entropy at 30 to 200 uM by fluorescence polarization measurement combined ITC analysis; conditions: dose 30-200 µM
Homo sapiens [17] = organism: Homo sapiens; experiment: Selectivity index, ratio of IC50 for inhibition of JAK2-mediated GM-CSF-induced STAT5 phosphorylation in human whole blood CD33-positive monocytes to IC50 for inhibition of JAK1/TYK2-mediated IFN-alpha induced STAT1 phosphorylation in whole blood CD33-positive monocytes; assay type: cell-based
[18] = molecular target: T4, Tyrosine-protein kinase JAK3 (Homo sapiens, UniProt P52333); experiment: Inhibition of recombinant human JAK3 assessed as inhibition of substrate phosphorylation measured every 5 mins for 30 mins by LANCE Ultra kinase assay
T4 sequence (P52333 whole entry): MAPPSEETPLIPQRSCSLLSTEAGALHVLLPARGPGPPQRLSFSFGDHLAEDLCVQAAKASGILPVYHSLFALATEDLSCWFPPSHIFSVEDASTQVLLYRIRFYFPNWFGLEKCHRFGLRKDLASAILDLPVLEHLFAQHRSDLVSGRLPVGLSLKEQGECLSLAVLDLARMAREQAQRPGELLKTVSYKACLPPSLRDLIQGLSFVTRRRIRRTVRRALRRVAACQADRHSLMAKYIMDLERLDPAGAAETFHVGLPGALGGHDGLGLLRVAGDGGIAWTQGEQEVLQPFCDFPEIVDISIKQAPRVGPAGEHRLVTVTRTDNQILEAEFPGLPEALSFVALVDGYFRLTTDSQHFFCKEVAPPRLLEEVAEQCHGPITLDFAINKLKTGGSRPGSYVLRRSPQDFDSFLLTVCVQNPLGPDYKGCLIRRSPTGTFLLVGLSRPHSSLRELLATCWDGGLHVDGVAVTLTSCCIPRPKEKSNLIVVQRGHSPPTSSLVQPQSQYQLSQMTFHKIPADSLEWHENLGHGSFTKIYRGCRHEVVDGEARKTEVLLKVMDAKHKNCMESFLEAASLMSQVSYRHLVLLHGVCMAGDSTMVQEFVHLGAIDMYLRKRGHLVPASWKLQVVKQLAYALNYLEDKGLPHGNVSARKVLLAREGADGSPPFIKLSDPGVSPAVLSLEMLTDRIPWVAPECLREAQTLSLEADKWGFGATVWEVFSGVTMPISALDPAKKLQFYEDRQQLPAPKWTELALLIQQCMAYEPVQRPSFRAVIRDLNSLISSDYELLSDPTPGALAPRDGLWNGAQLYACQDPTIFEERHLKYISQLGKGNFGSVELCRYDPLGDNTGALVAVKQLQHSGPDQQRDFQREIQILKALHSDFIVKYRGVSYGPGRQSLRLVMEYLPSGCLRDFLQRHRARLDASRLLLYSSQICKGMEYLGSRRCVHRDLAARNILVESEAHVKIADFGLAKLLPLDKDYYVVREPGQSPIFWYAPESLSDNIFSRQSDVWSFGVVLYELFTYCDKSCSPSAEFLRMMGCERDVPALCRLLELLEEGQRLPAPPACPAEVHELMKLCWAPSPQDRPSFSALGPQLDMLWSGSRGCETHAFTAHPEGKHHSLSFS

Homo sapiens [19] = organism: Homo sapiens; experiment: Selectivity index, ratio of IC50 for inhibition of JAK1/JAK3-mediated IL-2 induced STAT5 phosphorylation in human whole blood CD4+ T cells to IC50 for inhibition of JAK1/TYK2-mediated IFN-alpha induced STAT1 phosphorylation in whole blood CD33-positive monocytes; assay type: cell-based
[20] = molecular target: T1, Tyrosine-protein kinase JAK2; experiment: Binding affinity to recombinant human JAK2 kinase domain (840 to 1132 residues) assessed as change in enthalpy at 30 to 200 uM by fluorescence polarization measurement combined ITC analysis; conditions: dose 30-200 µM
[21] = molecular target: T4, Tyrosine-protein kinase JAK3; experiment: Binding affinity to recombinant human JAK3 kinase domain by fluorescence polarization assay
Homo sapiens [22] = organism: Homo sapiens; experiment: Selectivity index, ratio of IC50 for inhibition of JAK1/JAK2-mediated IFNgamma-induced STAT1 phosphorylation in human whole blood CD33-positive monocytes to IC50 for inhibition of JAK1/TYK2-mediated IFN-alpha induced STAT1 phosphorylation in whole blood CD33-positive monocytes; assay type: cell-based
[23] = Selectivity index, ratio of IC50 for cytotoxicity against IL-3 dependent humanized mouse BaF3 cells expressing wild type human JAK2 to IC50 for cytotoxicity against IL-3 dependent humanized mouse BaF3 cells expressing human JAK2 V617F mutant; assay type: functional
Homo sapiens [24] = organism: Homo sapiens; experiment: Selectivity index, ratio of IC50 for inhibition of JAK1-mediated IL-6 induced STAT3 phosphorylation in human whole blood CD33-positive monocytes to IC50 for inhibition of JAK1/TYK2-mediated IFN-alpha induced STAT1 phosphorylation in whole blood CD33-positive monocytes; assay type: cell-based
[25] = molecular target: T1, Tyrosine-protein kinase JAK2; experiment: Binding affinity to recombinant human JAK2 kinase domain (840 to 1132 residues) assessed as dissociation constant by fluorescence polarization measurement combined ITC analysis
[26] = molecular target: T1, Tyrosine-protein kinase JAK2; experiment: Binding affinity to recombinant human JAK2 kinase domain (840 to 1132 residues) assessed as gibbs free energy change at 30 to 200 uM by fluorescence polarization measurement combined ITC analysis; conditions: dose 30-200 µM
Homo sapiens [27] = organism: Homo sapiens; experiment: Selectivity index, ratio of IC50 for recombinant human JAK1 kinase domain to IC50 for recombinant human JAK2 kinase domain

T1 sequence (O60674 whole entry): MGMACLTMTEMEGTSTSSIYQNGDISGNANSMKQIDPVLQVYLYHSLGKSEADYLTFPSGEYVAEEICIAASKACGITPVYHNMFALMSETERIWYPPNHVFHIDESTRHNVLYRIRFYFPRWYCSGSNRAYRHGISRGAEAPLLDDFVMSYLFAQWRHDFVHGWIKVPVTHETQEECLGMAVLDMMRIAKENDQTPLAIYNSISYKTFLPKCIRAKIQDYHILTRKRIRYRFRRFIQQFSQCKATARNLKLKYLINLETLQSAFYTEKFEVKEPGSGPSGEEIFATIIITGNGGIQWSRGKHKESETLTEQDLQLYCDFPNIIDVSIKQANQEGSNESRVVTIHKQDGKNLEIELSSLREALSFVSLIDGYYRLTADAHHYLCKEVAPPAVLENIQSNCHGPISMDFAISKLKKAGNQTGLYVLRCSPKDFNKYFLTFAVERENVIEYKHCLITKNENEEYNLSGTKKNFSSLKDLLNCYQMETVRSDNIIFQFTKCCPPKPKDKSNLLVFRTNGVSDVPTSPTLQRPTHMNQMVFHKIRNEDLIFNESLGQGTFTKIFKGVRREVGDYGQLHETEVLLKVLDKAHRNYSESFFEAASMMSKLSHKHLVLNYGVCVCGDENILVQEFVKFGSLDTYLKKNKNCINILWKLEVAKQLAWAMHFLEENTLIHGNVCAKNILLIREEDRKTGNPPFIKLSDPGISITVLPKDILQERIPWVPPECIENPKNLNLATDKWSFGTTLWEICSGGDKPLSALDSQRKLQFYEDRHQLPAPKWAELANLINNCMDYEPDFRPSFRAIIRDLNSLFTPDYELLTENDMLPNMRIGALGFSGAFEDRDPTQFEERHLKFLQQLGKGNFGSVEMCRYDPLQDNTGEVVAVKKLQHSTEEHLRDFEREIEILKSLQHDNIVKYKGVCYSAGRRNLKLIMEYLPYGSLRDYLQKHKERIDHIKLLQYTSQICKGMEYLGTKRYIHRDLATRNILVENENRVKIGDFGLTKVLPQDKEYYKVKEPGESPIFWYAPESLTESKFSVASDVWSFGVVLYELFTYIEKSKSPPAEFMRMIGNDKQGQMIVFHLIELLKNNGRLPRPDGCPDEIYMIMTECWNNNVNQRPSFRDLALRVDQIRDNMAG

deltaH [1] | deltaG [2] | -TdeltaS [4] | Kd [8] | IC50 [9] | Kd [10] | IC50 [11] | Kd [12] | IC50 [13] | IC50 [15] | SMILES | further results
-7.6 kcal/mol | -10.9 kcal/mol | -3.3 kcal/mol |  |  |  |  |  |  |  | C1=N/C2=N/c3ccc(OCCN4CCCC4)c(c3)COC/C=C/COCc3cccc(c3)C(=C1)N2 | Activity [3]: Active
 |  |  |  |  |  |  |  |  |  | C[C@]12O[C@H](C[C@]1(O)CO)n1c3ccccc3c3c4c(c5c6ccccc6n2c5c31)CNC4=O | Activity (BaF3 [5]): Active; Activity (BaF3 [6]): Active
-14.4 kcal/mol | -11.3 kcal/mol | 3.2 kcal/mol |  |  |  |  |  |  |  | N#CCNC(=O)c1ccc(-c2ccnc(Nc3ccc(N4CCOCC4)cc3)n2)cc1 | 
 |  |  |  |  |  |  |  |  |  | N#CC[C@H](C1CCCC1)n1cc(-c2ncnc3[nH]ccc23)cn1 | Activity (BaF3 [5]): Active; Activity (BaF3 [6]): Active
 |  |  |  |  |  |  |  |  |  | O=C(Nc1c[nH]nc1-c1nc2ccc(CN3CCOCC3)cc2[nH]1)NC1CC1 | Activity [7]: Active; Activity [3]: Active
 |  |  | 37 nM | 65 nM |  |  |  |  |  | O=C(Nc1c[nH]nc1-c1nc2cc(CN3CCOCC3)ccc2[nH]1)NC1CC1 [AT-9283] | 
-10.4 kcal/mol | -10.8 kcal/mol | -0.4 kcal/mol | 23 nM | 22 nM | 4.8 nM | 99 nM | 6.9 nM | 26 nM | 11 nM | CCS(=O)(=O)N1CCN(c2ccc(Nc3ncc(C(N)=O)c(NC4CC4)n3)cc2)CC1 [CERDULATINIB] | Activity [7]: Active; Activity [3]: Active; Kd [14]: 8.9 nM
 |  |  | 8.2 nM | 7.3 nM | 11 nM | 155 nM | 16 nM | 92 nM | 6.2 nM | Cc1cc(Nc2cc(CN3CCOCC3)c3nc(C)c(Cc4ccc(Cl)cc4F)n3n2)n[nH]1 [GANDOTINIB] | -TdeltaS [16]: -6.6 kcal/mol; Ratio IC50 (Homo sapiens [17]): 7.5; IC50 [18]: 199 nM; Ratio IC50 (Homo sapiens [19]): 1.1; deltaH [20]: -4.1 kcal/mol; Kd [21]: 13 nM; Ratio IC50 (Homo sapiens [22]): 2.3; Ratio IC50 [23]: 1.5; Ratio IC50 (Homo sapiens [24]): 4; Kd [25]: 11 nM; deltaG [26]: -10.7 kcal/mol
-5.4 kcal/mol | -10.7 kcal/mol | -5.4 kcal/mol | 51 nM | 3.4 nM | 26 nM | 488 nM | 385 nM | 4100 nM | 54 nM | N#CCC1(n2cc(-c3ncnc4[nH]ccc34)cn2)CN(C2CCN(C(=O)c3ccnc(C(F)(F)F)c3F)CC2)C1 [ITACITINIB] | Ratio IC50 (Homo sapiens [17]): 16.7; IC50 [18]: 10800 nM; Ratio IC50 (Homo sapiens [19]): 0.4; Kd [14]: 10.7 nM; Kd [21]: 324 nM; Ratio IC50 (Homo sapiens [22]): 0.8; Ratio IC50 (Homo sapiens [24]): 1.2
-12.5 kcal/mol | -11.3 kcal/mol | 1.2 kcal/mol | 16 nM | 7.1 nM | 4.5 nM | 41 nM | 21 nM | 216 nM | 0.8 nM | C[C@H](Nc1cc(-c2cnn(C)c2)cc(Nc2cnccn2)n1)c1ccc(F)cc1 [NS-018] | Ratio IC50 (Homo sapiens [17]): 5.8; IC50 [18]: 182 nM; Ratio IC50 (Homo sapiens [19]): 1.7; Kd [14]: 4 nM; Kd [21]: 19 nM; Ratio IC50 (Homo sapiens [27]): 9; Ratio IC50 (Homo sapiens [22]): 0.6; Ratio IC50 (Homo sapiens [24]): 2.8
 |  |  | 318 nM | 371 nM |  |  | 125 nM | 536 nM |  | C1=C/COCc2cc(ccc2OCCN2CCCC2)Nc2nccc(n2)-c2cccc(c2)COC/1 [PACRITINIB] | 
